Measured values from US20030165854A1, “Marker genes responding to treatment with toxins” (priority 2000, published 2003).
Read-outs that look alike come from different tables or passages of the source.

Assays:
P450 LA-omega 4A3 = experiment: Gene expression (fold change) of known genes in toxin-treated rat liver, cDNA library transcript imaging; details: clofibrate-treated rat liver, vs untreated liver
[1] = test system: rat liver cDNAs SEQ ID NOs: 1-61; assay type: in vivo, Han/Wistar rat; details: Strain HW
P450 3A2 = experiment: Gene expression (fold change) of known genes in toxin-treated rat liver, cDNA library transcript imaging; assay type: in vivo; details: clofibrate-treated rat liver, vs untreated liver
P450 4A = details: clofibrate-treated rat liver, vs untreated liver
[2] = test system: rat liver cDNAs SEQ ID NOs: 62-202; experiment: Abundance of cDNA clones in toxin-treated rat liver cDNA libraries (transcript imaging), Sprague-Dawley; assay type: in vivo; details: Strain SD
Protocol: Columns 1 and 2 show the SEQ ID NO and Clone ID of the rat cDNA clone, respectively.
Abundance of a clone was determined by counting the number of clones present in a master cluster.
Abundance of a particular cDNA in the library profile was determined by summing the total number of copies of the clones present in the master cluster in that library.

## CCOC(=O)C(C)(C)Oc1ccc(Cl)cc1 [clofibrate]
P450 LA-omega 4A3; 12 hours
  Gene expression (fold change) P450 LA-omega 4A3: 14.8 fold change
P450 LA-omega 4A3; 24 hours
  Gene expression (fold change) P450 LA-omega 4A3: 26.6 fold change
P450 LA-omega 4A3; 3 days
  Gene expression (fold change) P450 LA-omega 4A3: 1.1 fold change
P450 LA-omega 4A3; 7 days
  Gene expression (fold change) P450 LA-omega 4A3: 0.5 fold change
P450 LA-omega 4A3; 28 days
  Gene expression (fold change) P450 LA-omega 4A3: 0.47 fold change
[1]
  Maximum Abundance, SEQ ID NO 9, Clone ID 700308908: 6
  Maximum Abundance, SEQ ID NO 11, Clone ID 700131403: 4
[1]; Sex M
  Maximum Abundance, SEQ ID NO 10, Clone ID 700139239: 4
P450 3A2; 12 hours
  Gene expression (fold change) P450 3A2: 0.14 fold change
P450 3A2; 24 hours
  Gene expression (fold change) P450 3A2: 1.2 fold change
P450 3A2; 3 days
  Gene expression (fold change) P450 3A2: 0.63 fold change
P450 3A2; 7 days
  Gene expression (fold change) P450 3A2: 0.50 fold change
P450 3A2; 28 days
  Gene expression (fold change) P450 3A2: 0.45 fold change
P450 4A; 12 hours
  Gene expression (fold change) P450 4A: 7.0 fold change
P450 4A; 24 hours
  Gene expression (fold change) P450 4A: 16.6 fold change
P450 4A; 3 days
  Gene expression (fold change) P450 4A: 1.4 fold change
P450 4A; 7 days
  Gene expression (fold change) P450 4A: 0.5 fold change
P450 4A; 28 days
  Gene expression (fold change) P450 4A: 1.3 fold change
[2]
  Maximum Abundance, SEQ ID NO 110, Clone ID 700192259: 5
  Maximum Abundance, SEQ ID NO 111, Clone ID 700269330: 4
  Maximum Abundance, SEQ ID NO 112, Clone ID 701317696: 5
  Maximum Abundance, SEQ ID NO 163, Clone ID 700025278: 4
  Maximum Abundance, SEQ ID NO 164, Clone ID 700122008: 6
  Maximum Abundance, SEQ ID NO 165, Clone ID 700136662: 3
  Maximum Abundance, SEQ ID NO 166, Clone ID 700144043: 4
  Maximum Abundance, SEQ ID NO 167, Clone ID 700177423: 3
  Maximum Abundance, SEQ ID NO 168, Clone ID 700247621: 4
  Maximum Abundance, SEQ ID NO 169, Clone ID 700251379: 3
  Maximum Abundance, SEQ ID NO 170, Clone ID 700272988: 5
  Maximum Abundance, SEQ ID NO 171, Clone ID 700306859: 3
  Maximum Abundance, SEQ ID NO 172, Clone ID 700307013: 3
  Maximum Abundance, SEQ ID NO 173, Clone ID 700323707: 4
  Maximum Abundance, SEQ ID NO 174, Clone ID 700513589: 4
  Maximum Abundance, SEQ ID NO 175, Clone ID 700538641: 3
  Maximum Abundance, SEQ ID NO 176, Clone ID 700592657: 3
  Maximum Abundance, SEQ ID NO 177, Clone ID 701190918: 3
  Maximum Abundance, SEQ ID NO 178, Clone ID 701313456: 3
  Maximum Abundance, SEQ ID NO 179, Clone ID 701397319: 3
  Maximum Abundance, SEQ ID NO 180, Clone ID 701429135: 6
  Maximum Abundance, SEQ ID NO 181, Clone ID 701429654: 3
  Maximum Abundance, SEQ ID NO 182, Clone ID 701458841: 3
  Maximum Abundance, SEQ ID NO 183, Clone ID 701470083: 3
  Maximum Abundance, SEQ ID NO 184, Clone ID 701562608: 3
  Maximum Abundance, SEQ ID NO 185, Clone ID 701884534: 5
  Maximum Abundance, SEQ ID NO 186, Clone ID 700068662: 6
  Maximum Abundance, SEQ ID NO 187, Clone ID 700933309: 5
  Maximum Abundance, SEQ ID NO 201, Clone ID 700062503: 3
[2]; Sex F
  Maximum Abundance, SEQ ID NO 113, Clone ID 700230724: 4
  Maximum Abundance, SEQ ID NO 114, Clone ID 700307025: 4
  Maximum Abundance, SEQ ID NO 115, Clone ID 700361295: 3
  Maximum Abundance, SEQ ID NO 116, Clone ID 700420930: 3
  Maximum Abundance, SEQ ID NO 117, Clone ID 700526706: 3
  Maximum Abundance, SEQ ID NO 118, Clone ID 700635732: 3
  Maximum Abundance, SEQ ID NO 119, Clone ID 700824178: 3
  Maximum Abundance, SEQ ID NO 120, Clone ID 701396706: 4
  Maximum Abundance, SEQ ID NO 121, Clone ID 701475987: 3
  Maximum Abundance, SEQ ID NO 122, Clone ID 701621131: 3
  Maximum Abundance, SEQ ID NO 123, Clone ID 701879551: 3
  Maximum Abundance, SEQ ID NO 124, Clone ID 701883446: 3
  Maximum Abundance, SEQ ID NO 125, Clone ID 701883859: 3
  Maximum Abundance, SEQ ID NO 188, Clone ID 700024288: 2
  Maximum Abundance, SEQ ID NO 189, Clone ID 700064545: 3
  Maximum Abundance, SEQ ID NO 190, Clone ID 700066933: 2
  Maximum Abundance, SEQ ID NO 191, Clone ID 700146747: 3
  Maximum Abundance, SEQ ID NO 192, Clone ID 700589657: 3
  Maximum Abundance, SEQ ID NO 193, Clone ID 700858043: 1
[2]; Sex M
  Maximum Abundance, SEQ ID NO 109, Clone ID 700250903: 11
  Maximum Abundance, SEQ ID NO 126, Clone ID 700122019: 4
  Maximum Abundance, SEQ ID NO 127, Clone ID 700276321: 4
  Maximum Abundance, SEQ ID NO 128, Clone ID 700323126: 3
  Maximum Abundance, SEQ ID NO 129, Clone ID 700324604: 3
  Maximum Abundance, SEQ ID NO 130, Clone ID 700363120: 3
  Maximum Abundance, SEQ ID NO 131, Clone ID 700364810: 3
  Maximum Abundance, SEQ ID NO 132, Clone ID 700510701: 4
  Maximum Abundance, SEQ ID NO 133, Clone ID 700810877: 5
  Maximum Abundance, SEQ ID NO 134, Clone ID 700928985: 6
  Maximum Abundance, SEQ ID NO 135, Clone ID 700931410: 4
  Maximum Abundance, SEQ ID NO 136, Clone ID 701093657: 4
  Maximum Abundance, SEQ ID NO 137, Clone ID 701259518: 3
  Maximum Abundance, SEQ ID NO 138, Clone ID 701264516: 4
  Maximum Abundance, SEQ ID NO 139, Clone ID 701341715: 4
  Maximum Abundance, SEQ ID NO 140, Clone ID 701434939: 4
  Maximum Abundance, SEQ ID NO 141, Clone ID 701460429: 3
  Maximum Abundance, SEQ ID NO 142, Clone ID 701463285: 4
  Maximum Abundance, SEQ ID NO 143, Clone ID 701605992: 4
  Maximum Abundance, SEQ ID NO 144, Clone ID 701737185: 3
  Maximum Abundance, SEQ ID NO 145, Clone ID 701737221: 4
  Maximum Abundance, SEQ ID NO 146, Clone ID 701920170: 3
  Maximum Abundance, SEQ ID NO 147, Clone ID 701922204: 3
  Maximum Abundance, SEQ ID NO 148, Clone ID 701922375: 4
  Maximum Abundance, SEQ ID NO 149, Clone ID 701922439: 4
  Maximum Abundance, SEQ ID NO 150, Clone ID 701922513: 4
  Maximum Abundance, SEQ ID NO 151, Clone ID 701922576: 4
  Maximum Abundance, SEQ ID NO 152, Clone ID 701922583: 3
  Maximum Abundance, SEQ ID NO 153, Clone ID 701922711: 3
  Maximum Abundance, SEQ ID NO 154, Clone ID 701922744: 4
  Maximum Abundance, SEQ ID NO 155, Clone ID 701922971: 3
  Maximum Abundance, SEQ ID NO 156, Clone ID 701923019: 5
  Maximum Abundance, SEQ ID NO 157, Clone ID 701923022: 3
  Maximum Abundance, SEQ ID NO 158, Clone ID 701923218: 4
  Maximum Abundance, SEQ ID NO 159, Clone ID 701923240: 4
  Maximum Abundance, SEQ ID NO 160, Clone ID 701923241: 3
  Maximum Abundance, SEQ ID NO 161, Clone ID 701923330: 3
  Maximum Abundance, SEQ ID NO 162, Clone ID 701925484: 4
  Maximum Abundance, SEQ ID NO 194, Clone ID 700060595: 3
  Maximum Abundance, SEQ ID NO 195, Clone ID 700061212: 3
  Maximum Abundance, SEQ ID NO 196, Clone ID 700062747: 2
  Maximum Abundance, SEQ ID NO 197, Clone ID 700124248: 3
  Maximum Abundance, SEQ ID NO 198, Clone ID 700252787: 3
  Maximum Abundance, SEQ ID NO 199, Clone ID 700272719: 3
  Maximum Abundance, SEQ ID NO 200, Clone ID 700282789: 3
